Where a chain is given by its changes, count along the chain named. Read-outs that look alike come from different tables or passages of the source.
Tests used:
ASICs [1] = biological target: T1, ASICs (Mus musculus, UniProt Q6NXK8); assay type: cell-based; conditions: cultured mouse cortical neurons; n=8; read-out: IC50, dose-dependent blockade of ASIC currents
T1 sequence (Q6NXK8 1-526): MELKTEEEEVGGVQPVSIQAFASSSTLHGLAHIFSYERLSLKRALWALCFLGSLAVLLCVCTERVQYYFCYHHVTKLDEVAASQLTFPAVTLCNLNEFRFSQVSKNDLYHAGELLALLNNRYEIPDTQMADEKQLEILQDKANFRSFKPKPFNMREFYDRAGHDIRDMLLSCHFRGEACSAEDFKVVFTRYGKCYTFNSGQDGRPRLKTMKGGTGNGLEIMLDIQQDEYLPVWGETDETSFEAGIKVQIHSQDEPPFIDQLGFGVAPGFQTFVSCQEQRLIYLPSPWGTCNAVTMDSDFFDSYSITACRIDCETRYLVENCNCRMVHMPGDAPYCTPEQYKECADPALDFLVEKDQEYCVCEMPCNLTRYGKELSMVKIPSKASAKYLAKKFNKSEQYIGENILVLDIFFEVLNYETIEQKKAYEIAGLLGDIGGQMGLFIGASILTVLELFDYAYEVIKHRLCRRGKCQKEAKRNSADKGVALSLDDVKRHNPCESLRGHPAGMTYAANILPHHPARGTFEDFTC
T1 sequence (Q925H0 1-512 partner): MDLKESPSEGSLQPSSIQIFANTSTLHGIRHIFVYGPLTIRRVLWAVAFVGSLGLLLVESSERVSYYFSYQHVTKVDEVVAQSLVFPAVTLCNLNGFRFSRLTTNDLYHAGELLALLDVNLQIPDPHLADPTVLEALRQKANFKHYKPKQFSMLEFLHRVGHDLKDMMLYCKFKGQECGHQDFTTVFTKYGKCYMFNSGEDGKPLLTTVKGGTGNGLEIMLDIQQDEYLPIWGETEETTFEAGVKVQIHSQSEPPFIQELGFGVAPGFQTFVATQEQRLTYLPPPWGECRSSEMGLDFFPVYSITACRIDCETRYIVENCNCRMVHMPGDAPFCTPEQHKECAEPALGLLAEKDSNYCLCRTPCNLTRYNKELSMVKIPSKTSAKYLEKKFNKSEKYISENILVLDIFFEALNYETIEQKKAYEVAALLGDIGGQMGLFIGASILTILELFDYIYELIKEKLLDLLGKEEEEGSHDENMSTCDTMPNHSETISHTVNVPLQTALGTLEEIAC

ASICs [2] = biological target: T2, ASICs (Mus musculus, UniProt Q6NXK8); assay type: cell-based; conditions: 100 µM amiloride; pH 6.0; n=6
T2 construct: endogenous in cells; host or cells: primary cortical neurons from E16 Swiss mice
T2 sequence (Q6NXK8 1-526): T1 sequence (Q6NXK8 1-526)

cortical neurons = test: Fura-2 Ca^2+ imaging of acid-induced increase of [Ca^2+]i in cortical neurons; assay type: cell-based, mouse; conditions: pH drop to 6.0; blockers of glutamate receptors and voltage-gated Ca^2+ channels present; n=6-8
TRPM7 channels = TRPM7 channels (Homo sapiens, UniProt Q96QT4); test: Conductance of TRPM7 channels; assay type: cell-based
[3] = assay type: in vivo, rats; conditions: n=11
ASIC2a = biological target: T3, ASIC2a (Homo sapiens, UniProt Q16515); test: Blockade of ASIC 2a current expressed in CHO cells; assay type: cell-based; conditions: CHO cells, FIG. 17
T3 construct: expressed in transfected cells; host or cells: CHO
T3 sequence (Q16515 1-512): T1 sequence (Q925H0 1-512 partner) with T132S, E471D, M479V, A503T

[4] = Efficacious plasma and brain concentration in mice; assay type: in vivo
Text: It is thus estimated that only a 10-fold increase in potency is necessary to achieve efficacious concentrations that are suitable for an acute therapeutic for stroke in humans. […]

ASIC1a = biological target: T4, ASIC1a (Homo sapiens, UniProt P78348); test: Blockade of ASIC 1a current expressed in CHO cells; assay type: cell-based; set-up: expressed in transfected cells; host or cells: CHO; conditions: CHO cells, FIG. 16
T4 sequence (P78348 1-528): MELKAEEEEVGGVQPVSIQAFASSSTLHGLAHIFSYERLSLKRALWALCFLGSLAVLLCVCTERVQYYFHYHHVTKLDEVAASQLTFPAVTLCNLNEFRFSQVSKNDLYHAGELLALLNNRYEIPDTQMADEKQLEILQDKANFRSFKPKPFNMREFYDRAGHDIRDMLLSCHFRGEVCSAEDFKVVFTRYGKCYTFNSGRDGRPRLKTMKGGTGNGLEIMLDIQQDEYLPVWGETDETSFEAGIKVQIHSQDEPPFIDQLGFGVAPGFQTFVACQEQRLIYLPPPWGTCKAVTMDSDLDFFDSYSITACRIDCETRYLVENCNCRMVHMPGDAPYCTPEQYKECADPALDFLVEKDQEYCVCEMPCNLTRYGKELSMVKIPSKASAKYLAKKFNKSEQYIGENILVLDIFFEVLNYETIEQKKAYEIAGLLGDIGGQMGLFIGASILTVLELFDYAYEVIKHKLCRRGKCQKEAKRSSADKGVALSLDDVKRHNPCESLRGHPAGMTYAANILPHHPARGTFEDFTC

[5] = Mouse 60 min MCAO, intracerebroventricular injection one hour after MCAO, infarct volume; conditions: mice, evaluated one day after ischemia induction, FIG. 18

Chain of TRPM7 channels (Q96QT4 whole entry): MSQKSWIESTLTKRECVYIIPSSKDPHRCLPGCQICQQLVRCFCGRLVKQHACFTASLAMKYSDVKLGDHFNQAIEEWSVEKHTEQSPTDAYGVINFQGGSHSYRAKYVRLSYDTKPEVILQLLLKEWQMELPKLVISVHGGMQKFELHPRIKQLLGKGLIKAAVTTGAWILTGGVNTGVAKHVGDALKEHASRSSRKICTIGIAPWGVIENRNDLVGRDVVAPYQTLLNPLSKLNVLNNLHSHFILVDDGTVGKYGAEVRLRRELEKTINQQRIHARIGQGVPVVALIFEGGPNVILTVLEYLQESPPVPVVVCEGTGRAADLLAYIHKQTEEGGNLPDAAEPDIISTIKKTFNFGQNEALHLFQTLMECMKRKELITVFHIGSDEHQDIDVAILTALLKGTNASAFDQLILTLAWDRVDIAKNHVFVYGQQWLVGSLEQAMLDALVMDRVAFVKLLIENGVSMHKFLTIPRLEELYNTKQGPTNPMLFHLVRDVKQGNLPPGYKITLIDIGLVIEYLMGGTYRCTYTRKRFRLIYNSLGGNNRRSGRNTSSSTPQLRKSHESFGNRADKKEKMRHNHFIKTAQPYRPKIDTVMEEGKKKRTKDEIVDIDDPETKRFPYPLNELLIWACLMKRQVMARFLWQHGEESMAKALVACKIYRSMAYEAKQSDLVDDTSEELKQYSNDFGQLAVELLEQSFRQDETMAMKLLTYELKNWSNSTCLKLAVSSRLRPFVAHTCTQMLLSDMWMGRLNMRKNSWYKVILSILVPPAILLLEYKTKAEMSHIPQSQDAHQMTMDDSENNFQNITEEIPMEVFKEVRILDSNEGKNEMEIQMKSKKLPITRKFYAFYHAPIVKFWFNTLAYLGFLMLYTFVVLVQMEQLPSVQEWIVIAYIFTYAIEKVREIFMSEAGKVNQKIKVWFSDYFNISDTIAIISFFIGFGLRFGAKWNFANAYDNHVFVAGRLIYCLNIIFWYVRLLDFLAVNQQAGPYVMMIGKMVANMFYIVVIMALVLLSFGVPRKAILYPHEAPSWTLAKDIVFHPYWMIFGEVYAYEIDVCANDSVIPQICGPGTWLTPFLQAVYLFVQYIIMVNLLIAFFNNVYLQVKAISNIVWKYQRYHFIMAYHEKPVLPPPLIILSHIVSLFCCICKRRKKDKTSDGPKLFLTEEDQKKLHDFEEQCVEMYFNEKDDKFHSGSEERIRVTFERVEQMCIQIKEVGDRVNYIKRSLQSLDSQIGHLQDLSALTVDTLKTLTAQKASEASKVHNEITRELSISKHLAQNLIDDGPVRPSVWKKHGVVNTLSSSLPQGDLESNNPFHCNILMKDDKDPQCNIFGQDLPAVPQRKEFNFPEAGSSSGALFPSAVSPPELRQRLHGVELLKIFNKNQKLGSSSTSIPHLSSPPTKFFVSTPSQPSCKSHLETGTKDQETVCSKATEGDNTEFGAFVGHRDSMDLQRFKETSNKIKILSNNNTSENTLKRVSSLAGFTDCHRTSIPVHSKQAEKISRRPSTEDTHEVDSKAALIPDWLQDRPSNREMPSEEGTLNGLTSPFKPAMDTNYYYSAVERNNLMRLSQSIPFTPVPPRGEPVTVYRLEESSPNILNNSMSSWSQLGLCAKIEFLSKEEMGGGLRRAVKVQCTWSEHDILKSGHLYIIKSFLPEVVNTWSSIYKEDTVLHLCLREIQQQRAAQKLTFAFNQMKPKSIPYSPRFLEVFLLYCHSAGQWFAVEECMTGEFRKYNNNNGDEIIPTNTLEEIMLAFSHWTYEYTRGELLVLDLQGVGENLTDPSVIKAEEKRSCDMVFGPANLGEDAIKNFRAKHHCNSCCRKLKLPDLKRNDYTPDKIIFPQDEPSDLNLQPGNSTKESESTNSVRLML

With `N=C(N)NC(=O)c1nc(Cl)c(N)nc1N` [amiloride] the IC50 (ASICs [1]) was 16.4 ± 4.1 µM, the “peak amplitude of Ca^2+-mediated current, of control” value (ASICs [2]) was 26% ± 2% and the “peak and sustained increases in [Ca^2+]i” value (cortical neurons) was “largely inhibited”. The “conductance of TRPM7 channels” value (TRPM7 channels) was “no effect”, the infarct volume [3] was 229.7 ± 41.1 mm^3 and the “block of ASIC2a current” value (ASIC2a) was “dose-dependent”. For the same molecule, the “total brain concentration at which efficacy can be achieved” value ([4]; icv dose of 1 µl x 500 µM) was 12.5 µM, the “plasma concentration at which efficacy can be achieved” value ([4]; iv dose of 50 µl x 1mM) was 32.5 µM and the “block of ASIC1a current” value (ASIC1a) was “dose-dependent”. For the same molecule, the infarct volume [5] was “effectively reduce infarct volume”.

From EP3035931B1, “COMPOSITION FOR REDUCING NERVOUS SYSTEM INJURY AND METHOD OF MAKING AND USE THEREOF” (Morehouse School of Medicine, priority 2013, dated 2015)
